Measurements as given in US20240376098A1, “METHODS OF TREATMENT USING BCN057, BCN077 AND ANALOGS” (BCN Biosciences L.L.C., priority 2021, published 2024).

Experiments:
[1] = test system: Lgr5+ ISCs; test: Lgr5+ intestinal stem cells in 5FU treated Lgr5-Cre-ERT-GFP mice; format: in vivo; conditions: 5FU treated mice, confocal microscopic imaging
Protocol: 5FU is a component of FOLFIRINOX and the active agent metabolized from Capecitabine (Xeloda®). To, examine the effect of BCN057 against chemo induced toxicity in Lgr5+ ISCs, Lgr5-Cre-ERT-GFP mice were pre-treated with 5FU as reported and then subjected to BCN057 treatment.
Stains of GI crypts with green=LGR5+ stem cells. Mice were treated with 5FU and 5FU+BCN057 for 5 days. BCN057 was administered for two extra days after 5FU treatment. Small intestine samples were harvested and stained for LGR5 at 3 days after the last 5FU injection. FIG. 5D is a histogram of the quantitation by % of LGR5+ cells remaining in […] sections at the crypt base showing prevention of 5-FU induced apoptosis in LGR5+ stem cells in GI.

[2] = test system: PD-1 expression on human T-lymphocytes; test: Western blot of PD-1 on T-lymphocytes co-cultured with Panc-1 cells; format: cell-based; conditions: 15 minutes to 24 hours
Protocol: Cell lines and cell culture: Panc-1 cells were cultured in DMEM medium supplemented with 10% Fetal Bovine Serum and maintained at 37° C.5% CO2. Human Peripheral Blood Pan-T Cells were cultured in serum free T cells expansion media with 10 ng/ml of rhIL-2, T-cell activator and expanded as per the manufacturer instructions. Panc-1 cells and T-Cells were grown and expanded separately in T75 flasks. For co-culture experiments with Panc-1 cell, 2.5 million T-cells per well were plated in the well using a 6 well plate. 2.5 million Panc-1 Cells were plated in the thinsert which was placed into the well of the 6 well plate in order to have the cells physically separated but share media. The cells were incubated for 24 hours at 37° C., 5% CO2. At 24 hours the media was replaced with media containing vehicle, or 10 uM BCN057 and were incubated for the following timepoints: 1 hr, 6 hr, 12 hr, 24 hrs. The Panc-1 cells were removed by gently scraping the cells from the thinsert.
Western Blot: Cells were harvested and lysed in cell lysis buffer on ice for 15 minutes and the lysate was centrifuged at 13,000 rpm at 4° C. for 10 minutes. The supernatant was transferred into a new tube for BCA protein quantification assay (Thermo Fisher Scientific) and the samples were normalized. 3× loading buffer (Cell Signaling) was added the protein sample and boiled for 5 minutes. The samples were used for SDS-PAGE analysis and transferred to nitrocellulose membrane. The membrane was blocked with 5% BSA at room temperature for 1 hour and incubated with primary antibody at 4° C. overnight. The membrane was washed with 1×TBST 5 minutes for 3 times and incubated with horseradish peroxidase-conjugated secondary antibody for 1 hour at room temperature. The protein was visualized by SuperSignal West Pico Stable Peroxide Solution (Thermo Fisher Scientific). The blot was visualized by chemiluminescence using a BioRad Versadoc Imaging System.
BCN057 and Immune Checkpoint blockade: An emerging method of treatment for many forms of cancer, including PDAC, is immune checkpoint inhibitors. […]

[3] = test system: KRAS mutant G12D invasive pancreatic cancer cell lines; test: Proliferation of pancreatic cancer cell lines with analogues of BCN057; format: cell-based
[4] = test system: human KRAS G12D mutant colorectal cancer cell line LS174T; test: Viability of LS174T colorectal cancer cells; format: cell-based; conditions: viability versus concentration
From the text: FIG. 9 is a graph of viability versus concentration of BCN077.

[5] = test system: pancreatic ductal adenocarcinoma cells (AsPC-1, BxPC-3, MIA PaCa-2 and Panc-1); conditions: range over AsPC-1, BxPC-3, MIA PaCa-2 and Panc-1; limits printed in nM and μM; cited from earlier work

Structure (SMILES)	PD1 expression in co-culture of T-cells and Panc1 cells [2]	Proliferation of KRAS mutant G12D invasive pancreatic cancer cell lines [3]	other results
O=c1[nH]cc(F)c(=O)[nH]1 [5FU, 5-Fluorouracil, reference compound]	–	–	Lgr5+ ISCs in jejunal section [1]: significant loss of Lgr5+ ISCs
CNCCC(=O)Nc1c(-c2cc3ccc(OC)cc3[nH]c2=O)nc2c(C)cccn12.Cl [BCN076]	inhibit PD1 expression over time	inhibition of proliferation	–
COc1ccc2cc(-c3nc4c(C)cccn4c3NC(=O)c3cccc(F)c3)c(=O)[nH]c2c1 [BCN077]	–	inhibition of proliferation	Activity on viability of LS174T [4]: potent activity
CONCCC(=O)Nc1c(-c2cc3ccc(OC)cc3[nH]c2=O)nc2c(C)cccn12 [BCN036]	inhibit PD1 expression over time	inhibition of proliferation	–
Nc1ccn([C@@H]2O[C@H](CO)[C@@H](O)C2(F)F)c(=O)n1 [gemcitabine]	–	–	IC50 [5]: 494 to 23900 nM
